In patent US10563197B2, “Use of a combination of Dbait molecule and PARP inhibitors to treat cancer” (INSTITUT CURIE, priority 2015, dated 2020):

Tests used:
[1] = tested on: HeLa PARP1 KD; test: Cell survival, trypan blue counting; type: cell-based, human; details: 4.80 μM of AsiDNA and/or 0.1 μM of Ola; day 6 after treatment
Method: (§6) Cells were grown according to the supplier's instructions. Cell lines were maintained at 37° C. in a humidified atmosphere at 5% CO2.
(§7) AsiDNA or PARPi cytotoxicity was measured by relative survival and cell death quantification. Adherent cells were seeded in 24-well culture plates at appropriate densities and incubated 24 hours at 37° C. before AsiDNA and/or PARPi addition. Cells were harvested day 6aftertreatment, stained with 0.4% trypan blue (Sigma Aldrich, Saint-Louis, USA) and counted with a Burker chamber. Cell survival was calculated as ratio of living treated cells to living mock-treated cells. Cell death was calculated as the number of dead cells on the total number of counted cells. Additivity of the toxicity was calculated by the product of cell survivals to AsiDNA and cell survivals to PARPi.

[2] = tested on: HeLa BRCA2 SX; test: Cell survival, trypan blue counting; type: cell-based, human; details: 4.80 μM of AsiDNA and/or 0.1 μM of Ola; day 6 after treatment
Method: as §6, §7

[3] = tested on: HCT116; test: Cell survival, trypan blue counting; type: cell-based, human; details: 4.80 μM of AsiDNA and/or 0.1 μM of Ola; day 6 after treatment
Method: as §6, §7

[4] = tested on: Hut78; test: Cell survival, trypan blue counting; type: cell-based, human; details: 4.80 μM of AsiDNA and/or 0.1 μM of Ola; day 6 after treatment
Method: as §6, §7

[5] = tested on: HCC38; test: Cell survival, trypan blue counting; type: cell-based, human; details: 4.80 μM of AsiDNA and/or 0.1 μM of Ola; day 6 after treatment
Method: as §6, §7

[6] = tested on: Breast cancer cell lines MDAMB231; test: Cell survival with DT01 and PARP inhibitors (Example 1, FIG. 1); type: cell-based, human; details: DT01 100 or 333 μg/ml plus Olaparib 0.1, 1 μM or Veliparib 1, 10, 50 μM; 6 days
Method: Breast cancer cell lines MDAMB231 were treated with 100 μg/ml (Black, Squares) or 333 μg/ml (Grey, Crosses) of DT01 or no DT01 (Black, Diamond) and exposed to either 0, 0.1 and 1 μM of Olaparib (upper panel) or 1, 10 and 50 μM Veliparib (lower panel). Survival was measured 6 days after treatment using trypan blue to detect living cells. The data are presented as % of the non-treated control.
The human cell lines were grown in complete RPMI (Gibco, Cergy Pontoise, France) supplemented with 10% fetal bovine serum (ATGC, Orléans, France), 1% sodium pyruvate, streptomycin ([…]) and penicillin ([…]) (Invitrogen, Carlsbad, Calif., USA). Cells were maintained at 37° C. under a 5% CO2 atmosphere, at 100% humidity. Treatments were performed by adding nucleotides (DT01 and others) or/and PARP inhibitors at time zero in medium without serum. The medium was changed with fresh medium containing fetal bovine serum 24 hours after beginning of treatment. Cells were let to grow for 4 additional days (5 days after treatment), treated with trypsin and counted for total number of cells. Trypan blue (0.4%) was added for counting the living cells (uncolored) in the population.

[7] = tested on: MD227 human breast cancer cell lines grafted in the fat pad; test: In vivo test on tumor growth, breast cancer xenograft; details: DT01 2.5 mg intratumoral and 2.5 mg subcutaneous daily for 5 days; Olaparib 200 mg/kg/day per os, 5 daily sessions; or both
Method: Nude mice with xenografted MD227 human breast cancer cell lines grafted in the fat pad were treated by intratumoral administration of DT01 (5 mg/day) and Olaparib (200 mg/kg/day). Tumor growth was monitored (time zero: beginning of treatment). Eight to ten animals were treated per group (group 1: vehicle injection (grey line); group 2: DT01 (black dotted line); group 3: Olaparib (grey dotted line); group 4; DT01+ Olaparib (black line)). Treatment was administered 5 following days.
Human breast cancer xenograft tumors were obtained by injecting 4.10^6 tumor cells into the fat pad of adult female nude mice (Janvier, Le Genest Saint Isle, France). The animals were housed in the laboratory for at least 1 week before starting experiments. There were six animals per cage under controlled conditions of light and dark cycles (12 h: 12 h), relative humidity (55%), and temperature (21° C.). Food and tap water were available ad libitum. […] Mice were weighed every week and followed up for 280 days. For ethical reasons, the animals were sacrificed when tumors reached 1500 mm^3. The Local Committee on Ethics of Animal Experimentation approved all experiments.

[8] = tested on: 3 immortalized mammary cell lines (MCF10A, MCF12A and 184B5); test: Cell death and proliferation in non-tumor controls; type: cell-based, human; details: 0.1 μM for Ola and 4.8 μM for AsiDNA
Method: (§1) Efficacy of Ola and AsiDNA was assessed by measuring cell death and proliferation in 12BC cell lines including 4BRCA-mutated cell lines (FIGS. 4A and B and FIG. 5). In addition, HeLa cells silenced for BRCA1 or BRCA2 genes were used as a control of BRCA mutation factor and 3 immortalized mammary cell lines (MCF10A, MCF12A and 184B5) as non-tumor controls. The concentration of the drugs (0.1 μM for Ola and 4.8 μM for AsiDNA) were chosen based on the 75-80% survival in the BC227 BRCA2^−/− mutant. […] Ola and AsiDNA treatments had no effect on the three control non-tumor cell lines.
(§2) Cells were grown according to the supplier's instructions.

[9] = tested on: BRCA^−/− cell lines; test: Cell death and proliferation in BRCA-mutated cell lines; type: cell-based, human; details: 0.1 μM Ola, 4.8 μM AsiDNA; sensitive = difference in % dead cells higher than two-fold
Method: as §1, §2

[10] = tested on: MCF10A non-tumor cells; test: Alkaline comet assay; type: cell-based, human; details: 24 h; olaparib (1 μM) alone or with AsiDNA (16 μM)
Method: (§3) To dissect this cytotoxic synergy, the inventors examined the effect of AsiDNA, Ola or both on DNA repair activities. […] Pan-nuclear phosphorylation of H2AX is thought to be involved in the inhibition of HR and NHEJ repair enzyme recruitment by AsiDNA. […] This increase could account for the efficient toxicity of the combination in MDAMB231 cells.
(§4) Cells treated with AsiDNA (16 μM), olaparib (1 μM) or both were suspended in 0.5% low melting point agarose in DMEM and transferred onto a frosted glass microscope slide precoated with a layer of 0.5% normal melting point agarose. Slides were immersed in lysis solution [2.5 mol/L NaCl, 100 mmol/L EDTA, 10 mmol/L Tris, 1% sodium lauryl sarcosinate, 10% DMSO, 1% Triton X-100 (pH 10)] at 4jC for 1 h, placed in a electrophoresis tank containing 0.3 mol/L NaOH (pH 13) and 1 mmol/L EDTA for 40 min, electrophoresis for 25 min at 25 V (300 mA), washed with neutral buffer [400 mmol/L Tris-HCl (pH 7.5)], and stained with 20 Ag/mL ethidium bromide. The variables of the “comets” were quantified with the use of the software Comet Assay 2 (Perceptive Instrument). Triplicate slides were processed for each experimental point. The tail moment is defined as the product of the percentage of DNA in the tail and the displacement between the head and the tail of the comet.

[11] = tested on: MDAMB231 tumor cells; test: Alkaline comet assay; type: cell-based, human; details: 24 h; AsiDNA (16 μM) or olaparib (1 μM) alone
Method: as §3, §4

[12] = tested on: 3 BC cell lines; test: Combined treatment survival in BC cell lines (FIG. 6, 7, 12); type: cell-based, human; details: FIG. 7
Method: (§5) Efficacy of AsiDNA (4. 8 μM), olaparib (0, 0.1 and 1 μM) or both was monitored 6 days after treatment by cell counting after trypan blue labeling. (A) Percentage of living cells relative to non-treated condition (NT). (B) Percentage of dead cells. Data are expressed as mean+Sc.D. of at least 2 independent experiments. Dotted lines indicate the calculated cell survivals if additivity between AsiDNA and olaparib.
Efficacy of AsiDNA (4.8 μM), veliparib (0, 10 and 50 μM) or both was monitored 6 days after treatment by trypan blue staining. (A) Percentage of living cells relative to non-treated condition (NT). (B) Percentage of dead cells. Dotted lines indicate the calculated cell survivals if additivity between AsiDNA and veliparib.
The inventors monitored cell survival to combined treatment of 3 BC and 2 non-tumor cell lines with different sensitivities to Ola and AsiDNA alone (FIG. 6; Table 1). […] However, the combination remained more efficient or at least equal to the expected additive effect at all the tested doses. […] In contrast, the normal cells were insensitive to both, the combined and the single treatments with AsiDNA and Ola (FIG. 6; Table 1).

[13] = tested on: 2 non-tumor cell lines; test: Combined treatment survival in non-tumor cell lines (FIG. 6, 12); type: cell-based, human; details: AsiDNA 4.8 μM, olaparib 0.1 and 1 μM; 6 days
Method: as §5
(A) Percentage of living cells relative to non-treated condition (NT). (B) Percentage of dead cells. Dotted lines indicate the calculated cell survivals if additivity between AsiDNA and veliparib.
The inventors monitored cell survival to combined treatment of 3 BC and 2 non-tumor cell lines with different sensitivities to Ola and AsiDNA alone (FIG. 6; Table 1).

Question: Which “Survival (%/NT)” value [1] does the source give for `O=C(c1cc(Cc2n[nH]c(=O)c3ccccc23)ccc1F)N1CCN(C(=O)C2CC2)CC1` [Olaparib, 4-[(3-[(4-cyclopropylcarbonyl)piperazin-4-yl]carbonyl)-4-fluorophenyl]methyl(2H)-phthalazin-1-one] here?
Answer: 100.5 %/NT

Question: And the “Survival (%/NT)” value [2]?
Answer: 65.0 %/NT

Question: And the “Survival (%/NT)” value [3]?
Answer: 82.9 %/NT

Question: What about the “Survival (%/NT)” value [4] of the same compound?
Answer: 85.8 %/NT

Question: And the “Survival (%/NT)” value [5]?
Answer: 66.7 %/NT

Question: And the “survival to combined treatment with DT01 versus expected added effect of both single treatments” value [6]?
Answer: synergic effect

Question: What about the “local skin toxicity or systemic toxicity” value [7] of the same compound?
Answer: No local skin toxicity or systemic toxicity

Question: What about the “effect on cell death and proliferation” value [8] of the same compound?
Answer: no effect

Question: What about the sensitivity to treatment [9] of the same compound?
Answer: sensitive to both treatments

Question: What about the “DNA damage (alkaline comet assay)” value [10] of the same compound?
Answer: slight increase of DNA damage

Question: And the “DNA damage (alkaline comet assay)” value [11]?
Answer: induced accumulation of damage

Question: And the “dose dependence of efficacy of single treatments” value [12]?
Answer: dose dependent

Question: What about the “sensitivity to combined and single treatments” value [13] of the same compound?
Answer: insensitive
